From article PMC11513893, “Discovery of Oral Degraders of the ROS1 Fusion Protein with Potent Activity against Secondary Resistance Mutations” (Journal of Medicinal Chemistry, 2024)

Columns and labels:
[1] = tested on: Ba/F3 ROS1-G2032R; assay: Antiproliferation assay; type: cell-based, mouse; conditions: Ba/F3 cells, cell growth inhibition, 72 h
Description: (§1) To assess targeted degradation of ROS1 fusion proteins, we first established a mouse pro-B cell line Ba/F3 as a model expressing the CD74-ROS1 oncogene or CD74-ROS1 with clinically observed secondary/tertiary mutations. The Ba/F3 cell line is dependent on interleukin-3 for survival and proliferation. Upon transduction of oncogenic ROS1, Ba/F3 cells become independent of interleukin-3 but dependent on the transduced driver gene.
(§2) Ba/F3 immortalized murine bone marrow–derived pro-B cells were obtained from Creative Biogene (Shirley, NY) and cultured in RPMI supplemented with 10% FBS and IL3 (0.5 ng/mL). Ba/F3 cells expressing ROS1 variants were maintained in RPMI supplemented with 10% FBS and puromycin (0.7 mg/mL). […] Each compound was dissolved in DMSO and serially diluted in RPMI for cell culture experiments.
(§3) To assess the 72 h effect of drug treatment on cell proliferation, 2000 to 3000 cells were plated in replicates of three in 96-well plates. The plates were placed in an incubator at 37 °C, 5% CO2 for 72 h. Following drug treatments, the cells were incubated with the Alamar Blue Assay reagent (BioRad), 5 μL each well for 4 h at 37 °C and 5% CO2. Luminescence was measured on a multiplate reader and analyzed. […] IC50 values were determined using a nonlinear regression model with a sigmoidal dose response in GraphPad. The data were collected based on triplicate experiments, and presented as mean ± SD.
(§4) The resulting virus was used to infect Ba/F3 cells. After retroviral infection, Ba/F3 cells were selected by incubation with puromycin (0.7 mg/mL) for 2 weeks. For Ba/F3 cells infected by the CD74–ROS1 variants, IL3 was withdrawn from the culture medium at least 2 weeks before the experiments.

[2] = tested on: ROS1; assay: ROS1 degradation in Ba/F3 cells (WES immunoblotting); type: cell-based; conditions: for DC50: concentration needed to reduce ROS1 protein by 50%, Ba/F3 cells; for Dmax (%) (ROS1): maximal degradation of ROS1 in Ba/F3 cells
Experimental: Protein levels were analyzed using a WES instrument according to the WES User Guide from ProteinSimple in duplicate experiments. The samples were mixed with the fluorescent 5 master mix (ProteinSimple) and then heated at 95 °C for 5 min. Boiled samples, biotinylated protein ladder, antibody diluent, Streptavidin-HRP, primary antibodies, ProteinSimple horseradish peroxidase conjugated antirabbit or antimouse secondary antibodies, luminol-peroxide, and wash buffer were loaded into the WES plate (Wes 12–230 kDa Prefilled Plates with Split Buffer, ProteinSimple). The plates and capillary cartridges were loaded into the WES instrument, and protein separation, antibody incubation, and imaging were performed according to manufacturer’s instructions. Compass software (ProteinSimple) was used to acquire the data and to generate the virtual blot image reconstruction and chemiluminescence signal intensity electropherograms. […] Protein levels are expressed as the AUC of the peak chemiluminescence intensity. Antibodies against phospho-ROS1(Tyr2274/2334) (E8F5J), ROS1 (D4D6(R)) were obtained from Cell Signaling Technology.

[3] = tested on: Ba/F3 CD74-ROS1 non mutant; assay: Antiproliferation assay (Alamar Blue, 72 h); type: cell-based, mouse; conditions: Ba/F3 cells, cell growth inhibition
Description: as §1, §2, §3, §4

**Q.** With “3-(5-(4-((4-(4-((5-Chloro-4-((2-(dimethylphosphoryl)phenyl)amino)pyrimidin-2-yl)amino)-3-methoxyphenyl)piperazin-1-yl)methyl)piperidin-1-yl)-1-oxoisoindolin-2-yl)piperidine-2,6-dione [9n]” as the compound, how does the IC50 [1] read?
**A.** 195 ± 124 nM

**Q.** And the DC50 [2]?
**A.** 11 nM

**Q.** And the “Dmax (%) (ROS1)” value [2]?
**A.** 93%

**Q.** What about the IC50 [3] of the same compound?
**A.** 9.5 ± 0.5 nM

**Q.** What does the source list for “4-(3-(4-(1-(4-((5-Chloro-4-((2-(dimethylphosphoryl)phenyl)amino)pyrimidin-2-yl)amino)-3-methoxyphenyl)piperidin-4-yl)piperazin-1-yl)azetidin-1-yl)-2-(2,6-dioxopiperidin-3-yl)isoindoline-1,3-dione [9j]”?
**A.** IC50 [1]: 1040 ± 96 nM; DC50 [2]: 108 nM; Dmax (%) (ROS1) [2]: 77%; IC50 [3]: 113 ± 16 nM

**Q.** Which IC50 ([1]; Mus musculus, BaF3) does the source give for `C[C@@H](Oc1cc(-c2cnn(C3CCN(c4cccc5c4C(=O)N(C4CCC(=O)NC4=O)C5=O)CC3)c2)cnc1N)c1c(Cl)ccc(F)c1Cl` (stereo partly drawn) [7a, 4-(4-(4-(6-Amino-5-((R)-1-(2,6-dichloro-3-fluorophenyl)ethoxy)pyridin-3-yl)-1H-pyrazol-1-yl)piperidin-1-yl)-2-(2,6-dioxopiperidin-3-yl)isoindoline-1,3-dione] here?
**A.** > 5000 nM

**Q.** And the DC50 [2]?
**A.** 310 nM

**Q.** And the “Dmax (%) (ROS1)” value [2]?
**A.** 67%

**Q.** What about the IC50 ([3]; Mus musculus, BaF3, 72 h) of the same compound?
**A.** 264 ± 44 nM

**Q.** `C[C@@H](Oc1cc(-c2cnn(C3CCN(CC4CN(c5cccc6c5C(=O)N(C5CCC(=O)NC5=O)C6=O)C4)CC3)c2)cnc1N)c1c(Cl)ccc(F)c1Cl` (stereo partly drawn) [7b, 4-(3-((4-(4-(6-Amino-5-((R)-1-(2,6-dichloro-3-fluorophenyl)ethoxy)pyridin-3-yl)-1H-pyrazol-1-yl)piperidin-1-yl)methyl)azetidin-1-yl)-2-(2,6-dioxopiperidin-3-yl)isoindoline-1,3-dione] was tested. Which IC50 ([1]; Mus musculus, BaF3) did it give?
**A.** > 5000 nM

**Q.** What about the DC50 [2] of the same compound?
**A.** > 1000 nM

**Q.** What about the “Dmax (%) (ROS1)” value [2] of the same compound?
**A.** <5%

**Q.** What about the IC50 ([3]; Mus musculus, BaF3, 72 h) of the same compound?
**A.** 2700 ± 254 nM

**Q.** Which results are given for `C[C@@H](Oc1cc(-c2cnn(C3CCN(CC4CCN(c5cccc6c5C(=O)N(C5CCC(=O)NC5=O)C6=O)CC4)CC3)c2)cnc1N)c1c(Cl)ccc(F)c1Cl` (stereo partly drawn) [7c, 4-(4-((4-(4-(6-Amino-5-((R)-1-(2,6-dichloro-3-fluorophenyl)ethoxy)pyridin-3-yl)-1H-pyrazol-1-yl)piperidin-1-yl)methyl)piperidin-1-yl)-2-(2,6-dioxopiperidin-3-yl)isoindoline-1,3-dione]?
**A.** IC50 ([1]; Mus musculus, BaF3): > 5000 nM; DC50 [2]: 368 nM; Dmax (%) (ROS1) [2]: 76%; IC50 ([3]; Mus musculus, BaF3, 72 h): 350 ± 106 nM

**Q.** What does the source list for `C[C@@H](Oc1cc(-c2cnn(C3CCN(CCC4CCN(c5cccc6c5C(=O)N(C5CCC(=O)NC5=O)C6=O)CC4)CC3)c2)cnc1N)c1c(Cl)ccc(F)c1Cl` (stereo partly drawn) [7d, 4-(4-(2-(4-(4-(6-Amino-5-((R)-1-(2,6-dichloro-3-fluorophenyl)ethoxy)pyridin-3-yl)-1H-pyrazol-1-yl)piperidin-1-yl)ethyl)piperidin-1-yl)-2-(2,6-dioxopiperidin-3-yl)isoindoline-1,3-dione]?
**A.** IC50 ([1]; Mus musculus, BaF3): > 5000 nM; DC50 [2]: 145 nM; Dmax (%) (ROS1) [2]: 78%; IC50 ([3]; Mus musculus, BaF3, 72 h): 106 ± 29 nM

**Q.** What does the source list for `C[C@@H](Oc1cc(-c2cnn(C3CCN(c4ccc5c(c4)C(=O)N(C4CCC(=O)NC4=O)C5=O)CC3)c2)cnc1N)c1c(Cl)ccc(F)c1Cl` (stereo partly drawn) [7e, 5-(4-(4-(6-Amino-5-((R)-1-(2,6-dichloro-3-fluorophenyl)ethoxy)pyridin-3-yl)-1H-pyrazol-1-yl)piperidin-1-yl)-2-(2,6-dioxopiperidin-3-yl)isoindoline-1,3-dione]?
**A.** IC50 ([1]; Mus musculus, BaF3): 2910 ± 742 nM; DC50 [2]: 203 nM; Dmax (%) (ROS1) [2]: 53%; IC50 ([3]; Mus musculus, BaF3, 72 h): 155 ± 21 nM

**Q.** How did the IC50 ([1]; Mus musculus, BaF3) turn out when `C[C@@H](Oc1cc(-c2cnn(C3CCN(CC4CN(c5ccc6c(c5)C(=O)N(C5CCC(=O)NC5=O)C6=O)C4)CC3)c2)cnc1N)c1c(Cl)ccc(F)c1Cl` (stereo partly drawn) [7f, 5-(3-((4-(4-(6-Amino-5-((R)-1-(2,6-dichloro-3-fluorophenyl)ethoxy)pyridin-3-yl)-1H-pyrazol-1-yl)piperidin-1-yl)methyl)azetidin-1-yl)-2-(2,6-dioxopiperidin-3-yl)isoindoline-1,3-dione] was run?
**A.** > 5000 nM

**Q.** What about the DC50 [2] of the same compound?
**A.** 622 nM

**Q.** And the “Dmax (%) (ROS1)” value [2]?
**A.** 24%

**Q.** What about the IC50 ([3]; Mus musculus, BaF3, 72 h) of the same compound?
**A.** 569 ± 73 nM

**Q.** Which IC50 ([1]; Mus musculus, BaF3) does the source give for `C[C@@H](Oc1cc(-c2cnn(C3CCN(CC4CCN(c5ccc6c(c5)C(=O)N(C5CCC(=O)NC5=O)C6=O)CC4)CC3)c2)cnc1N)c1c(Cl)ccc(F)c1Cl` (stereo partly drawn) [7g, 5-(4-((4-(4-(6-Amino-5-((R)-1-(2,6-dichloro-3-fluorophenyl)ethoxy)pyridin-3-yl)-1H-pyrazol-1-yl)piperidin-1-yl)methyl)piperidin-1-yl)-2-(2,6-dioxopiperidin-3-yl)isoindoline-1,3-dione] here?
**A.** > 5000 nM

**Q.** And the DC50 [2]?
**A.** 21 nM

**Q.** What about the “Dmax (%) (ROS1)” value [2] of the same compound?
**A.** 85%

**Q.** What about the IC50 ([3]; Mus musculus, BaF3, 72 h) of the same compound?
**A.** 15 ± 4 nM

**Q.** Which results are given for `C[C@@H](Oc1cc(-c2cnn(C3CCN(CCC4CCN(c5ccc6c(c5)C(=O)N(C5CCC(=O)NC5=O)C6=O)CC4)CC3)c2)cnc1N)c1c(Cl)ccc(F)c1Cl` (stereo partly drawn) [7h, 5-(4-(2-(4-(4-(6-Amino-5-((R)-1-(2,6-dichloro-3-fluorophenyl)ethoxy)pyridin-3-yl)-1H-pyrazol-1-yl)piperidin-1-yl)ethyl)piperidin-1-yl)-2-(2,6-dioxopiperidin-3-yl)isoindoline-1,3-dione]?
**A.** IC50 ([1]; Mus musculus, BaF3): > 5000 nM; DC50 [2]: > 1000 nM; Dmax (%) (ROS1) [2]: 11%; IC50 ([3]; Mus musculus, BaF3, 72 h): 842 ± 172 nM

**Q.** For `C[C@@H](Oc1cc(-c2cnn(C3CCN(CC4CCN(CC5CCN(c6ccc7c(c6)C(=O)N(C6CCC(=O)NC6=O)C7=O)CC5)CC4)CC3)c2)cnc1N)c1c(Cl)ccc(F)c1Cl` (stereo partly drawn) [7i, 5-(4-((4-((4-(4-(6-Amino-5-((R)-1-(2,6-dichloro-3-fluorophenyl)ethoxy)pyridin-3-yl)-1H-pyrazol-1-yl)piperidin-1-yl)methyl)piperidin-1-yl)methyl)piperidin-1-yl)-2-(2,6-dioxopiperidin-3-yl)isoindoline-1,3-dione], which IC50 ([1]; Mus musculus, BaF3) is on record?
**A.** > 5000 nM

**Q.** And the DC50 [2]?
**A.** 338 nM

**Q.** And the “Dmax (%) (ROS1)” value [2]?
**A.** 32%

**Q.** And the IC50 ([3]; Mus musculus, BaF3, 72 h)?
**A.** 284 ± 51 nM

**Q.** Which IC50 ([1]; Mus musculus, BaF3) does the source give for `Cc1cc(Nc2ncc(Cl)c(Nc3ccccc3S(=O)(=O)C(C)C)n2)c(OC(C)C)cc1C1CCN(CCNc2cccc3c2C(=O)N(C2CCC(=O)NC2=O)C3=O)CC1` (centres unmarked) [8a, 4-((2-(4-(4-((5-Chloro-4-((2-(isopropylsulfonyl)phenyl)amino)pyrimidin-2-yl)amino)-5-isopropoxy-2-methylphenyl)piperidin-1-yl)ethyl)amino)-2-(2,6-dioxopiperidin-3-yl)isoindoline-1,3-dione] here?
**A.** > 10000 nM

**Q.** What about the DC50 [2] of the same compound?
**A.** 225 nM

**Q.** And the “Dmax (%) (ROS1)” value [2]?
**A.** 58%

**Q.** What about the IC50 ([3]; Mus musculus, BaF3, 72 h) of the same compound?
**A.** 176 ± 31 nM

**Q.** What does the source list for `Cc1cc(Nc2ncc(Cl)c(Nc3ccccc3S(=O)(=O)C(C)C)n2)c(OC(C)C)cc1C1CCN(CCCNc2cccc3c2C(=O)N(C2CCC(=O)NC2=O)C3=O)CC1` (centres unmarked) [8b, 4-((3-(4-(4-((5-Chloro-4-((2-(isopropylsulfonyl)phenyl)amino)pyrimidin-2-yl)amino)-5-isopropoxy-2-methylphenyl)piperidin-1-yl)propyl)amino)-2-(2,6-dioxopiperidin-3-yl)isoindoline-1,3-dione]?
**A.** IC50 ([1]; Mus musculus, BaF3): > 10000 nM; DC50 [2]: 140 nM; Dmax (%) (ROS1) [2]: 71%; IC50 ([3]; Mus musculus, BaF3, 72 h): 122 ± 17 nM

**Q.** With `Cc1cc(Nc2ncc(Cl)c(Nc3ccccc3S(=O)(=O)C(C)C)n2)c(OC(C)C)cc1C1CCN(C2CCN(c3cccc4c3C(=O)N(C3CCC(=O)NC3=O)C4=O)CC2)CC1` (centres unmarked) [8c, 4-(4-(4-((5-Chloro-4-((2-(isopropylsulfonyl)phenyl)amino)pyrimidin-2-yl)amino)-5-isopropoxy-2-methylphenyl)-[1,4′-bipiperidin]-1′-yl)-2-(2,6-dioxopiperidin-3-yl)isoindoline-1,3-dione] as the compound, how does the IC50 ([1]; Mus musculus, BaF3) read?
**A.** 1260 ± 93 nM

**Q.** And the DC50 [2]?
**A.** 143 nM

**Q.** And the “Dmax (%) (ROS1)” value [2]?
**A.** 82%

**Q.** And the IC50 ([3]; Mus musculus, BaF3, 72 h)?
**A.** 107 ± 16 nM

**Q.** For `Cc1cc(Nc2ncc(Cl)c(Nc3ccccc3S(=O)(=O)C(C)C)n2)c(OC(C)C)cc1C1CCN(C2CN(C3CCN(c4ccc5c(c4)C(=O)N(C4CCC(=O)NC4=O)C5=O)CC3)C2)CC1` (centres unmarked) [8p, 5-(4-(3-(4-(4-((5-Chloro-4-((2-(isopropylsulfonyl)phenyl)amino)pyrimidin-2-yl)amino)-5-isopropoxy-2-methylphenyl)piperidin-1-yl)azetidin-1-yl)piperidin-1-yl)-2-(2,6-dioxopiperidin-3-yl)isoindoline-1,3-dione], which DC50 [2] is on record?
**A.** 27 nM

**Q.** What about the “Dmax (%) (ROS1)” value [2] of the same compound?
**A.** 93%

**Q.** And the IC50 ([3]; Mus musculus, BaF3, 72 h)?
**A.** 40 ± 6 nM
